Measurements taken from article PMC7019903 (Viruses, 2020).
Like-named read-outs stand apart in the source and are kept apart here.

Columns and labels:
[1] = tested on: Hantaan (HTNV) (strain 76–118); assay: microbe, parasite or virus in culture; type: cell-based, Hantaan virus; details: for EC50: read-out: HTNV EC50
[2] = in vitro; details: African green monkey
[3] = in vitro; details: Cercopithecus aethiops (monkey)
[4] = in vitro; details: Mesocricetus auratus (hamster)
[5] = in vitro; details: human
[6] = in vitro; details: Bos taurus (cattle)
[7] = tested on: HTNV; type: cell-based, Hantaan virus
[8] = tested on: HTNV; details: read-out: EC50 against HTNV; cited from earlier work
[9] = Orthohantavirus hantanense, Vero C1008, 168 h

Row | SMILES | EC50 [1, 9] | CC50 [2] | CC50 [3] | CC50 [4] | CC50 [5] | CC50 [6] | other results
1 | CCCCNC(=O)Nc1ccc(-n2nc3cc(Cl)c(Cl)cc3n2)cc1 [2m] | > 30 µM | > 30 µM | 95 µM | > 100 µM |  |  | 
2 | Cc1ccc(C(=O)Nc2ccc(-n3nc4cc(C)c(C)cc4n3)cc2)cc1 [4f, N-(4-(5,6-dimethyl-2H-benzo[d][1,2,3]triazol-2-yl)phenyl)-4-methylbenzamide] | > 30 µM | > 30 µM | > 100 µM | > 100 µM | > 100 µM | > 100 µM | melting point: 295 to 296 °C
3 | CCC(=O)Nc1ccc(-n2nnc3cc(Cl)c(Cl)cc32)cc1 [1c] | > 20 µM | 20 µM |  | 54 µM |  | ≥ 100 µM | 
4 | O=C(Nc1ccc(-n2nc3ccccc3n2)cc1)NC1CCCCC1 [3n] | > 30 µM | > 30 µM | 95 µM | > 100 µM | > 100 µM | > 100 µM | 
5 | COc1cc(C(=O)Nc2ccc(-n3nc4cc(Cl)c(Cl)cc4n3)cc2)cc(OC)c1OC [2j] | ≤ 5 µM | > 30 µM |  | 35 µM |  |  | Selectivity Index [1]: > 7.5; EC50 [1]: 4 µM; effect on viral titer (result in words) [7]: significant reduction of viral titer; reduction of viral titer [7]: 2.14 log10
6 | Nc1ccc(-n2nc3cc(Cl)c(Cl)cc3n2)cc1 [2a] | > 30 µM | > 30 µM | ≥ 100 µM | > 100 µM |  |  | 
7 | CCCNC(=O)Nc1ccc(-n2nc3cc(Cl)c(Cl)cc3n2)cc1 [2l] | ≤ 5 µM | 30 µM |  | 40 µM |  |  | Selectivity Index [1]: 6; EC50 [1]: 5 µM; effect on viral titer (result in words) [7]: significant reduction of viral titer
8 | Cc1ccc(C(=O)Nc2ccc(-n3nnc4cc(Cl)c(Cl)cc43)cc2)cc1 [1f] | > 30 µM | > 30 µM |  | ≥ 100 µM |  |  | 
9 | CC(=O)Nc1ccc(-n2nc3cc(Cl)c(Cl)cc3n2)cc1 [2b] | > 30 µM | > 30 µM |  | > 100 µM |  |  | 
10 | O=C(Nc1ccc(-n2nc3cc(Cl)c(Cl)cc3n2)cc1)c1ccc(Cl)cc1 [2g] | > 30 µM | > 30 µM | 95 µM | > 100 µM |  |  | 
11 | CCCC(=O)N(C(=O)CCC)c1ccc(-n2nnc3cc(Cl)c(Cl)cc32)cc1 [1e] | > 25 µM | 25 µM |  | 16 µM |  |  | 
12 | NC(=O)c1nc(F)c[nH]c1=O [Favipiravir] |  |  |  |  |  |  | EC50 [8]: 151 µM
13 | COc1ccc(C(=O)Nc2ccc(-n3nnc4cc(Cl)c(Cl)cc43)cc2)cc1 [1i] | > 30 µM | > 30 µM |  | > 100 µM |  |  | 
14 | Cc1cc2nn(-c3ccc(NC(=O)NC4CCCCC4)cc3)nc2cc1C [4n] | > 30 µM | > 30 µM | 95 µM | > 100 µM | > 100 µM | > 100 µM | 
15 | NC(=O)c1ncn([C@@H]2O[C@H](CO)[C@@H](O)[C@H]2O)n1 [RBV, Ribavirin, reference compound] | 37 µM | > 100 µM |  |  |  |  | Selectivity Index [1]: > 2; effect on viral titer (result in words) ([7]; 50 µM): significant decline in viral titer
16 | Nc1ccc(-n2nnc3cc(Cl)c(Cl)cc32)cc1 [1a] | > 30 µM | > 30 µM |  | > 100 µM | ≥ 100 µM |  | 
17 | CCNC(=O)Nc1ccc(-n2nc3cc(C)c(C)cc3n2)cc1 [4k] | > 30 µM | > 30 µM | > 100 µM | > 100 µM | > 100 µM | > 100 µM | 
18 | CCCNC(=O)Nc1ccc(-n2nc3ccccc3n2)cc1 [3l] | > 30 µM | > 30 µM | > 100 µM | > 100 µM | > 100 µM | > 100 µM | 
19 | CCCNC(=O)Nc1ccc(-n2nc3cc(C)c(C)cc3n2)cc1 [4l] | > 30 µM | > 30 µM | > 100 µM | > 100 µM | > 100 µM | > 100 µM | 

Row | SMILES | EC50 [1, 9] | CC50 [2] | CC50 [3] | CC50 [4] | CC50 [5] | CC50 [6] | other results
20 | COc1cc(C(=O)Nc2ccc(-n3nc4cc(C)c(C)cc4n3)cc2)cc(OC)c1OC [4j, N-(4-(5,6-dimethyl-2H-benzo[d][1,2,3]triazol-2-yl)phenyl)-3,4,5-trimethoxybenzamide] | > 30 µM | > 30 µM | > 100 µM | > 100 µM |  | > 100 µM | melting point: 272 to 273 °C
21 | CCNC(=O)Nc1ccc(-n2nc3cc(Cl)c(Cl)cc3n2)cc1 [2k] | 26 µM | > 30 µM |  | > 100 µM |  |  | 
22 | C#Cc1ncn([C@@H]2O[C@H](CO)[C@@H](O)[C@H]2O)n1 [ETAR, 1-beta-d-ribofuranosyl-3-ethynyl-[1,2,4] triazole] |  |  |  |  |  |  | EC50 [8]: 10 µM
23 | CCC(=O)Nc1ccc(-n2nc3cc(Cl)c(Cl)cc3n2)cc1 [2c] | > 30 µM | > 30 µM |  | > 100 µM |  |  | 
24 | Cc1ccc(C(=O)Nc2ccc(-n3nc4cc(Cl)c(Cl)cc4n3)cc2)cc1 [2f] | 22 µM | > 30 µM |  | > 100 µM |  |  | 
25 | O=C(Nc1ccc(-n2nc3cc(Cl)c(Cl)cc3n2)cc1)NC1CCCCC1 [2n] | ≤ 5 µM | > 30 µM |  | 71 µM |  |  | Selectivity Index [1]: > 7.5; EC50 [1]: 4 µM; effect on viral titer (result in words) [7]: significant reduction of viral titer
26 | CCCC(=O)N(C(=O)CCC)c1ccc(-n2nc3cc(Cl)c(Cl)cc3n2)cc1 [2e] | > 30 µM | > 30 µM | ≥ 100 µM | 62 µM |  |  | 
27 | CCC(=O)N(C(=O)CC)c1ccc(-n2nc3cc(Cl)c(Cl)cc3n2)cc1 [2d] | > 30 µM | > 30 µM | ≥ 100 µM | 26 µM |  | 73 µM | 
28 | O=C(Nc1ccc(-n2nc3cc(Cl)c(Cl)cc3n2)cc1)c1ccc([N+](=O)[O-])cc1 [2h] | > 30 µM | > 30 µM |  | > 100 µM |  |  | 
29 | O=C(Nc1ccc(-n2nnc3cc(Cl)c(Cl)cc32)cc1)c1ccc([N+](=O)[O-])cc1 [1h] | 21 µM | > 30 µM |  | 96 µM |  |  | 
30 | O=C(Nc1ccc(-n2nnc3cc(Cl)c(Cl)cc32)cc1)c1ccc(Cl)cc1 [1g] | ≥ 30 µM | > 30 µM | ≥ 100 µM | > 100 µM |  |  | 
31 | COc1ccc(C(=O)Nc2ccc(-n3nc4cc(Cl)c(Cl)cc4n3)cc2)cc1 [2i] | > 30 µM | > 30 µM |  | > 100 µM | ≥ 100 µM |  | 
32 | CCNC(=O)Nc1ccc(-n2nc3ccccc3n2)cc1 [3k] | > 30 µM | > 30 µM | > 100 µM | > 100 µM |  | > 100 µM | 
33 | CCCCNC(=O)Nc1ccc(-n2nc3cc(C)c(C)cc3n2)cc1 [4m] | > 30 µM | > 30 µM | > 100 µM | > 100 µM | > 100 µM | > 100 µM | 
34 | CCCCNC(=O)Nc1ccc(-n2nc3ccccc3n2)cc1 [3m] | > 30 µM | > 30 µM | > 100 µM | > 100 µM | > 100 µM | > 100 µM | 
35 | COc1cc(C(=O)Nc2ccc(-n3nc4ccccc4n3)cc2)cc(OC)c1OC [3j, N-(4-(2H-benzo[d][1,2,3]triazol-2-yl)phenyl)-3,4,5-trimethoxybenzamide] | > 30 µM | > 30 µM | > 100 µM | > 100 µM | > 100 µM | > 100 µM | melting point: 227 to 229 °C
36 | Cc1ccc(C(=O)Nc2ccc(-n3nc4ccccc4n3)cc2)cc1 [3f, N-(4-(2H-benzo[d][1,2,3]triazol-2-yl)phenyl)-4-methylbenzamide] | > 30 µM | > 30 µM | > 100 µM | > 100 µM | > 100 µM | > 100 µM | melting point: 266 to 268 °C
37 | COc1cc(C(=O)Nc2ccc(-n3nnc4cc(Cl)c(Cl)cc43)cc2)cc(OC)c1OC [1j] | > 30 µM | > 30 µM |  | > 100 µM |  |  | 
38 | CC(=O)Nc1ccc(-n2nnc3cc(Cl)c(Cl)cc32)cc1 [1b] | > 20 µM | 20 µM |  | 53 µM |  |  | 
